Laboratory results reported in the CheMixHub ionic liquid set.

Test: xn = mol fraction of the nth substance listed

CC(=O)[O-].Cn1cc[nH+]c1 + CCO
293.15 K, 101.3 kPa
Conditions	electrical conductivity [S/m]
x2 = 0	0.326
x2 = 0.9371	0.448

CCCC[n+]1ccn(C)c1.O=[N+]([O-])[O-] + CCO
101 kPa
Conditions	viscosity [mPa·s]
283.15 K, x2 = 0.447	35.48
288.15 K, x2 = 0.352	51.47
288.15 K, x2 = 0.663	9.58
288.15 K, x2 = 0.748	6.39
293.15 K, x2 = 0.254	67.9
293.15 K, x2 = 0.4	31.2
293.15 K, x2 = 0.748	5.61
298.15 K, x2 = 0	159
298.15 K, x2 = 0.11	105.5
298.15 K, x2 = 0.2	58.3
298.15 K, x2 = 0.663	7.62
298.15 K, x2 = 0.748	4.83
303.15 K, x2 = 0.447	16.15
303.15 K, x2 = 0.6	10.1
303.15 K, x2 = 0.852	2.46
308.15 K, x2 = 0.11	59.6
308.15 K, x2 = 0.2	38.6
308.15 K, x2 = 0.352	21.4
308.15 K, x2 = 0.663	5.77
313.15 K, x2 = 0.11	47.55
313.15 K, x2 = 0.2	32.1
313.15 K, x2 = 0.254	29.2
318.15 K, x2 = 0.2	26.9
318.15 K, x2 = 0.254	24.53
318.15 K, x2 = 0.4	14.2
318.15 K, x2 = 0.852	1.9
328.15 K, x2 = 0.447	7.87
333.15 K, x2 = 0.254	15.52

CCOS(=O)(=O)[O-].CC[n+]1ccn(C)c1 + CCO
298.15 K, 101 kPa
Conditions	viscosity [mPa·s]
x2 = 0.2187	47.7
x2 = 0.7508	5.08
x2 = 0.7866	4.31

CC[N+]1(C)CCCC1.COP(=O)([O-])OC + CCO
100 kPa
Conditions	viscosity [mPa·s]
293.15 K, x1 = 0.0534	2.2
293.15 K, x1 = 0.1535	5.03
298.15 K, x1 = 0.1535	4.5
298.15 K, x1 = 0.306	11.71
303.15 K, x1 = 0.1535	4.05
303.15 K, x1 = 1	123.5
308.15 K, x1 = 0.5052	20.8
308.15 K, x1 = 0.6938	40.6
308.15 K, x1 = 1	93.5
318.15 K, x1 = 0.1054	2.13
323.15 K, x1 = 0.0534	1.37
323.15 K, x1 = 0.1535	2.82
323.15 K, x1 = 0.2015	3.64
323.15 K, x1 = 0.6938	22.8
323.15 K, x1 = 0.8049	30.6
328.15 K, x1 = 0.1054	1.84
328.15 K, x1 = 0.2015	3.34
328.15 K, x1 = 0.6022	14.74
328.15 K, x1 = 0.8049	24.8
333.15 K, x1 = 0.2015	3.05
338.15 K, x1 = 0.0534	1.1
338.15 K, x1 = 0.9073	20.5
338.15 K, x1 = 1	24

CC[n+]1ccn(CCOC)c1.N#C[S-] + CCO
100 kPa
Conditions	viscosity [mPa·s]
293.15 K, x1 = 0.1	2.15
293.15 K, x1 = 0.3995	8.78
293.15 K, x1 = 0.6	20
293.15 K, x1 = 0.797	42.3
298.15 K, x1 = 0.3002	4.94
303.15 K, x1 = 0.3002	4.39
303.15 K, x1 = 0.8964	35.9
303.15 K, x1 = 1	44.3
308.15 K, x1 = 0.1999	2.58
308.15 K, x1 = 0.7	16.96
308.15 K, x1 = 0.797	23.4
308.15 K, x1 = 0.8964	29.6
308.15 K, x1 = 1	36
313.15 K, x1 = 0.3995	5.28
313.15 K, x1 = 0.797	19.8
318.15 K, x1 = 0.1999	2.14

CCOS(=O)(=O)[O-].CC[n+]1ccn(C)c1 + CCO + CCOC(C)(C)C
298.15 K, 101 kPa
Conditions	viscosity [mPa·s]
x2 = 0, x3 = 0	100.4
x2 = 0.1271, x3 = 0	65.5
x2 = 0.1281, x3 = 0	66.1
x2 = 0.2039, x3 = 0	49.8
x2 = 0.2187, x3 = 0	47.7
x2 = 0.3088, x3 = 0	34.69
x2 = 0.3256, x3 = 0	32.21
x2 = 0.3598, x3 = 0	28.75
x2 = 0.4147, x3 = 0	22.88
x2 = 0.4336, x3 = 0	21.39
x2 = 0.4604, x3 = 0	18.98
x2 = 0.5103, x3 = 0	15.4
x2 = 0.5223, x3 = 0	14.78
x2 = 0.5724, x3 = 0	11.74
x2 = 0.5926, x3 = 0	10.83
x2 = 0.5951, x3 = 0	10.65
x2 = 0.712, x3 = 0	6.13
x2 = 0.7174, x3 = 0	5.98
x2 = 0.7508, x3 = 0	5.08
x2 = 0.7676, x3 = 0	4.68
x2 = 0.7866, x3 = 0	4.31
x2 = 0.806, x3 = 0	3.86
x2 = 0.8666, x3 = 0	2.709
x2 = 0.9026, x3 = 0	2.189
x2 = 0.9062, x3 = 0	2.138
x2 = 0.9504, x3 = 0	1.628
x2 = 0.9522, x3 = 0	1.589

CCOS(=O)(=O)[O-].CC[n+]1ccn(C)c1 + CCO + O
298.15 K, 101 kPa
Conditions	viscosity [mPa·s]
x2 = 0.0425, x3 = 0.9493	1.473
x2 = 0.0462, x3 = 0.9365	1.767
x2 = 0.054, x3 = 0.9172	2.239
x2 = 0.0603, x3 = 0.8923	2.787
x2 = 0.0723, x3 = 0.8613	3.311
x2 = 0.0829, x3 = 0.8208	4.237
x2 = 0.0885, x3 = 0.9037	2.015
x2 = 0.0898, x3 = 0.1724	43.71
x2 = 0.0906, x3 = 0.3653	26.4
x2 = 0.1018, x3 = 0.8819	2.162
x2 = 0.1162, x3 = 0.8569	2.603
x2 = 0.1307, x3 = 0.8254	2.848
x2 = 0.1473, x3 = 0.8454	2.302
x2 = 0.1532, x3 = 0.7862	3.265
x2 = 0.1618, x3 = 0.823	2.558
x2 = 0.1776, x3 = 0.736	3.981
x2 = 0.1798, x3 = 0.7952	2.666
x2 = 0.1867, x3 = 0.3267	19.71
x2 = 0.203, x3 = 0.4762	11.23
x2 = 0.2036, x3 = 0.7562	3.061
x2 = 0.213, x3 = 0.6721	4.695
x2 = 0.2156, x3 = 0.7777	2.443
x2 = 0.2354, x3 = 0.7098	3.148
x2 = 0.2358, x3 = 0.7503	2.537
x2 = 0.2581, x3 = 0.7192	2.751
x2 = 0.2884, x3 = 0.6757	2.836
x2 = 0.2972, x3 = 0.6968	2.342
x2 = 0.3097, x3 = 0.4125	8.578
x2 = 0.3172, x3 = 0.5831	4.026
x2 = 0.3196, x3 = 0.668	2.391
x2 = 0.3235, x3 = 0.6281	3.109
x2 = 0.3439, x3 = 0.6361	2.653
x2 = 0.3528, x3 = 0.1226	18.65
x2 = 0.354, x3 = 0.5781	3.217
x2 = 0.3804, x3 = 0.5884	2.55
x2 = 0.3862, x3 = 0.6086	2.334
x2 = 0.4044, x3 = 0.3559	6.856
x2 = 0.4138, x3 = 0.5756	2.347
x2 = 0.4195, x3 = 0.5389	2.799
x2 = 0.4403, x3 = 0.5426	2.299
x2 = 0.4582, x3 = 0.4849	2.967
x2 = 0.4657, x3 = 0.1012	12.87
x2 = 0.4793, x3 = 0.4944	2.444
x2 = 0.4911, x3 = 0.5046	2.027
x2 = 0.521, x3 = 0.4447	2.385
x2 = 0.5486, x3 = 0.4376	2.109
x2 = 0.5636, x3 = 0.3905	2.443
x2 = 0.6042, x3 = 0.159	5.533
x2 = 0.6339, x3 = 0.3399	1.976
x2 = 0.6484, x3 = 0.2101	3.5
x2 = 0.6523, x3 = 0.3414	1.735
x2 = 0.6548, x3 = 0.0654	6.067
x2 = 0.6675, x3 = 0.2976	2.007
x2 = 0.7086, x3 = 0.2767	1.737
x2 = 0.7178, x3 = 0.241	2.045
x2 = 0.7723, x3 = 0.2038	1.728
x2 = 0.8545, x3 = 0.0276	2.451
x2 = 0.8653, x3 = 0.125	1.406
x2 = 0.9072, x3 = 0.0792	1.343
x2 = 0.9667, x3 = 0.0134	1.317

CCCC[n+]1ccn(C)c1C.F[B-](F)(F)F + CC[N+](C)(CC)CCOC.F[B-](F)(F)F
100 kPa, x2 = 0
Conditions	electrical conductivity [S/m]
333.15 K	0.335
338.15 K	0.447
343.15 K	0.53
348.15 K	0.63

CCCCn1cc[n+](CCOCCOCCOCC[n+]2ccn(CCCC)c2)c1.O=S(=O)([N-]S(=O)(=O)C(F)(F)F)C(F)(F)F.O=S(=O)([N-]S(=O)(=O)C(F)(F)F)C(F)(F)F + CC[n+]1ccn(C)c1.N#C[N-]C#N + O=S(=O)([N-]S(=O)(=O)C(F)(F)F)C(F)(F)F.[Li+]
100 kPa, x1 = 0.1386, x2 = 0.7575
Conditions	electrical conductivity [S/m]
298 K	0.61
303 K	0.773
313 K	0.902
323 K	1.18
333 K	1.51
344 K	1.89
